Laboratory results taken from US20260132123A1, “ABAD INHIBITOR COMPOUNDS” (UNIVERSITY COURT OF THE UNIVERSITY OF ST ANDREWS, priority 2021, published 2026).

Target: T1, 17β-HSD10 (Homo sapiens, UniProt Q99714)
T1 construct: Histev (histidine tag with TEV site) (N, cleaved yes); made in house; host or cells: E. coli BL21-CodonPlus
T1 sequence (Q99714 1-261): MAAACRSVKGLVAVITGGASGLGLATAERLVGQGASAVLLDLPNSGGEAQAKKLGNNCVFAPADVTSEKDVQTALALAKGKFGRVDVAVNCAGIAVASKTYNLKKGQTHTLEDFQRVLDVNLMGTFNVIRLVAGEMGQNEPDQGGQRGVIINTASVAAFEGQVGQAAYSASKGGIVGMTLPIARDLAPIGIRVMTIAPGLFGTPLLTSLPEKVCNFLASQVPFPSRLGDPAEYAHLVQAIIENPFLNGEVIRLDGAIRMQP
Assay: 17β-HSD10 (ABAD) enzyme inhibition assay, NADH oxidation read at 340 nm (primary screen and dose response)
Type: biochemical
Settings: for EC50 / Max. Effect (%) / Hill Slope / Max. Fit / Min. Fit: recombinant 17βHSD10 enzyme assay; for Hill Slope / Max. Fit / Min. Fit: curve fit
Method in brief: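 Screening used a 35 min room-temperature endpoint A340 read after compound (10 μM) and enzyme (2.5 nM, E. coli-expressed, His-tag removed) preincubated 15 min, then 100 μM NADH plus acetoacetyl-CoA added. Dose-response runs tracked absorbance kinetically 45 min; buffer pH 7.4 Tris with BSA, DTT.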

SMILES	EC50 [µM]	Max. Effect (%)	Hill Slope	Max. Fit	Min. Fit	17β-HSD10 / ABAD activity in words (SAR discussion)
COc1cccc(-c2ccccc2[C@H]2CCCN2C(=O)Cc2ccccc2)c1 [ESC1002506]	> 20	8	–	–	–	–
CC(=O)NCCCN(C)c1cccc(N(CC(C)C)C(=O)c2ccccc2F)c1 [ESC1002507]	> 20	4	–	–	–	–
CCCCN(C(=O)c1ccccc1F)c1cccc(N(C)Cc2c[nH]cn2)c1 [ESC1002508, N-butyl-2-fluoro-N-[3-[1H-imidazol-4-ylmethyl(methyl)amino]phenyl]benzamide]	1.55	92	1.2	96	0	–
Cc1cc(CN(C(=O)c2ccccc2F)c2cccc(N(C)Cc3c[nH]cn3)c2)no1 [ESC1002516, 2-fluoro-N-[3-[1H-imidazol-4-ylmethyl(methyl)amino]phenyl]-N-[(5-methylisoxazol-3-yl)methyl]benzamide]	> 20	46	–	–	–	–
CN(Cc1c[nH]cn1)c1cccc(N(CC(C)(C)C)C(=O)c2ccccc2F)c1 [ESC1002517, N-(2,2-dimethylpropyl)-2-fluoro-N-[3-[1H-imidazol-4-ylmethyl(methyl)amino]phenyl]benzamide]	2	92	0.87	106	−1	–
CC(C)CN(C(=O)c1ccccc1F)c1cccc(N(C)CC(N)=O)c1 [ESC1002570]	> 20	48	–	–	–	–
CC(C)CN(C(=O)c1ccccc1F)c1cccc(NCC(N)=O)c1 [ESC1002571]	> 20	13	–	–	–	–
CNC(=O)CN(C)c1cccc(N(CC(C)C)C(=O)c2ccccc2F)c1 [ESC1002572]	11.2	65	0.98	100	2	–
CNC(=O)CNc1cccc(N(CC(C)C)C(=O)c2ccccc2F)c1 [ESC1002573]	> 20	4	–	–	–	–
COc1ccc(C(=O)N(CC(C)C)c2cccc(N(C)Cc3c[nH]cn3)c2)c(F)c1 [ESC1002576]	0.245	98	1.1	97	−3	–
CC(C)CN(C(=O)c1ccccc1F)c1cccc(N(C)CCO)c1 [ESC1002577]	8.13	72	0.95	100	−1	–
CC(C)CN(C(=O)c1ccc[nH]c1=O)c1cccc(N(C)Cc2c[nH]cn2)c1 [ESC1002614, N-[3-[1H-imidazol-4-ylmethyl(methyl)amino]phenyl]-N-isobutyl-2-oxo-1H-pyridine-3-carboxamide]	> 20	30	–	–	–	–
CC(C)CN(C(=O)c1ccccc1S(C)(=O)=O)c1cccc(N(C)Cc2c[nH]cn2)c1 [ESC1002622]	6.92	76	0.9	108	−6	–
CC(C)CN(C(=O)c1ccccc1F)c1cccc(NCc2c[nH]cn2)c1 [ESC1002631]	9.33	64	0.94	100	−6	–
CC(C)CN(C(=O)c1ccccc1F)c1cccc(NCc2c[nH]c(C(C)C)n2)c1 [ESC1002632]	> 20	18	–	–	–	–
CC(C)CN(C(=O)c1ccccc1F)c1cccc(N(C)Cc2c[nH]c(C(C)C)n2)c1 [ESC1002633]	> 20	45	0.93	100	−3	further losses in potency
C#CCN(C)c1cccc(N(CC(C)C)C(=O)c2ccccc2F)c1 [ESC1002636]	5.5	79	0.98	101	−1	–
CC(C)CN(C(=O)c1cnccn1)c1cccc(N(C)Cc2c[nH]cn2)c1 [ESC1002656, N-[3-[1H-imidazol-4-ylmethyl(methyl)amino]phenyl]-N-isobutyl-pyrazine-2-carboxamide]	> 20	45	–	–	–	–
CC(C)CN(C(=O)c1ccccc1F)c1cccc(N(C)Cc2c[nH]c(C3CC3)n2)c1 [ESC1002674]	8.32	59	1.2	80	−5	–
CC(C)CN(C(=O)c1ccccc1F)c1cccc(N(C)Cc2c[nH]nn2)c1 [ESC1002675]	4.47	75	1.2	87	−2	–
CC(C)CN(C(=O)c1ccccc1F)c1cccc(N(C)Cc2cn[nH]c2I)c1 [ESC1002687]	11	64	1	100	−6	–
CC(C)CN(C(=O)c1ccncn1)c1cccc(N(C)Cc2c[nH]cn2)c1 [ESC1002703]	8.71	52	1.3	70	−5	–

SMILES	EC50 [µM]	Max. Effect (%)	Hill Slope	Max. Fit	Min. Fit	17β-HSD10 / ABAD activity in words (SAR discussion)
CC(C)CN(C(=O)c1ccccc1F)c1cccc(N(CCO)Cc2c[nH]cn2)c1 [ESC1002723]	5.13	81	1.1	94	0	–
CC(=O)CN(CC(C)=O)c1cccc(N(CC(C)C)C(=O)c2ccccc2F)c1 [ESC1002724]	> 20	−3	–	–	–	–
CC(C)CN(C(=O)c1ccccc1F)c1cccc(N(C)CC#N)c1 [ESC1002762]	> 20	39	–	–	–	–
CC(C)CN(C(=O)c1ccccc1F)c1cccc(NCc2nc[nH]n2)c1 [ESC1002763]	> 20	8	–	–	–	–
CC(C)CN(C(=O)c1ccccc1F)c1cccc(-n2cnnc2)c1 [ESC1002764]	> 20	4	–	–	–	–
CC(C)CN(C(=O)c1ccccc1F)c1cccc(-n2ccnc2)c1 [ESC1002765]	> 20	−2	–	–	–	–
CC(C)CN(C(=O)c1ccccc1F)c1cccc(N(C)Cc2nc[nH]n2)c1 [ESC1002770]	2.69	86	1.2	91	−4	–
CC(C)CN(C(=O)c1ccccc1F)c1cccc(N(C)Cc2c[nH]cn2)n1 [ESC1002795]	5.62	77	1.1	93	0	–
CC(C)CN(C(=O)c1ccccc1F)c1cccc(N(C)Cc2cc[nH]n2)n1 [ESC1002796]	> 20	47	1.2	100	−4	–
CC(C)CN(C(=O)c1ccccc1F)c1cncc(N(C)Cc2c[nH]cn2)c1 [ESC1002802]	> 20	20	–	–	–	–
Cc1ccc(C(=O)N(CC(C)C)c2nccc(N(C)Cc3cnc[nH]3)n2)cc1 [ESC1002817]	> 20	4	–	–	–	–
Cc1cn[nH]c1C(=O)N1CCC[C@H]1c1ccccc1 [S1−T1, 4-methyl-5-{[(2S)-2-phenylpyrrolidin-1-yl]carbonyl}-1H-pyrazole]	> 20	26.5	–	–	–	–
O=C(c1ncc[nH]1)N1CCC[C@H]1c1ccccc1 [S1−T2, 2-{[(2S)-2-phenylpyrrolidin-1-yl]carbonyl}-1H-imidazole]	> 20	6.4	–	–	–	–
O=C(c1ncn[nH]1)N1CCC[C@H]1c1ccccc1 [S1−T3, 5-{[(2S)-2-phenylpyrrolidin-1-yl]carbonyl}-1H-1,2,4-triazole]	> 20	7.1	–	–	–	–
O=C(c1ccon1)N1CCC[C@H]1c1ccccc1 [S1−T5, 3-{[(2S)-2-phenylpyrrolidin-1-yl]carbonyl}-1,2-oxazole]	> 20	27.5	–	–	–	–
O=C(c1nc(Br)no1)N1CCC[C@H]1c1ccccc1 [S1−T6]	> 20	20.5	–	–	–	–
O=C(c1ncco1)N1CCC[C@H]1c1ccccc1 [S1−T9, 2-{[(2S)-2-phenylpyrrolidin-1-yl]carbonyl}-1,3-oxazole]	> 20	26.6	–	–	–	–
O=C(c1cocn1)N1CCC[C@H]1c1ccccc1 [S1−T10, 4-{[(2S)-2-phenylpyrrolidin-1-yl]carbonyl}-1,3-oxazole]	> 20	20.5	–	–	–	–
O=C(c1cccnc1)N1CCC[C@H]1c1ccccc1 [S1−T12, 3-{[(2S)-2-phenylpyrrolidin-1-yl]carbonyl}pyridine]	> 20	9.1	–	–	–	–
O=C(c1ccncc1)N1CCC[C@H]1c1ccccc1 [S1−T13, 4-{[(2S)-2-phenylpyrrolidin-1-yl]carbonyl}pyridine]	> 20	22.3	–	–	–	–
O=C(c1[nH]ncc1Cl)N1CCC[C@H]1c1ccccc1 [S1−T14, 4-chloro-5-{[(2S)-2-phenylpyrrolidin-1-yl]carbonyl}-1H-pyrazole]	> 20	20.8	–	–	–	–
O=C(c1[nH]ncc1Cl)N1CCC[C@H]1c1ccccn1 [S1−T17, 2-[(2S)-1-[(4-chloro-1H-pyrazol-5-yl)carbonyl]pyrrolidin-2-yl]pyridine]	> 20	17.5	–	–	–	–
